Data as given in ChEMBL document CHEMBL2331461, “Microfluidics assisted synthesis and bioevaluation of sinomenine derivatives as antiinflammatory agents” (Eur J Med Chem, 2013).
Calls of active or inactive are those of the source. The rule behind the calls is not given here.

Experiments:
[1] = test system: NIH3T3; assay: Cytotoxicity against mouse NIH/3T3 cells assessed as growth inhibition after 24 hrs by MTT assay; format: cell-based
[2] = biological target: Tumor necrosis factor (Homo sapiens) (UniProt P01375); assay: Inhibition of TNFalpha (unknown origin)-induced NF-kappaB activation in mouse NIH/3T3 cells assessed as inhibition of NF-kappaB binding to DNA at 20 uM after 6 hrs by luciferase reporter gene assay; format: cell-based; settings: NIH3T3
[3] = test system: Mus musculus; assay: Antiinflammatory activity in ICR mouse assessed as inhibition of lambda-carrageenan-induced paw edema at 15 to 30 mg/kg, ip administered 2 hrs prior to carrageenan challenge measured after 6 to 18 hrs; format: functional, organism-based
[4] = test system: Mus musculus; assay: Antiinflammatory activity in ICR mouse assessed as inhibition of lambda-carrageenan-induced paw edema at 10 mg/kg, ip administered 2 hrs prior to carrageenan challenge measured after 2 to 18 hrs; format: functional, organism-based; parameters: dose 10 mg/kg
[5] = Mus musculus, NIH3T3, 24 h, read-out: IC50

Tumor necrosis factor (Homo sapiens), sequence (P01375 whole entry): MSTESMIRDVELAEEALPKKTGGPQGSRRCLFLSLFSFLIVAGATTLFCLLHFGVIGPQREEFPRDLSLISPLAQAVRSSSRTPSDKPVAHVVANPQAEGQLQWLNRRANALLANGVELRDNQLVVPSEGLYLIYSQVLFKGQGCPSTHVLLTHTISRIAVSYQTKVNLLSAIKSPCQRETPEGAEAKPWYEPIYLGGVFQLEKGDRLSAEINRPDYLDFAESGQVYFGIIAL

With COC(=O)[C@H]1C(c2ccc(Br)cc2)=NO[C@@H]1c1cc(OC)c(O)c2c1C[C@@H]1[C@@H]3C=C(OC)C(=O)C[C@]23CCN1C the IC50 [1, 5] was 55.7 µM and the inhibition [2] was “Active”.
Molecule CCCCC(CC)COC(=O)/C=C/c1cc(OC)c(O)c2c1C[C@@H]1[C@@H]3C=C(OC)C(=O)C[C@]23CCN1C (some centres undefined) has an IC50 [1, 5] of 4.8 µM.
For COC(=O)[C@H]1C(c2ccccc2)=NO[C@@H]1c1cc(OC)c(O)c2c1C[C@@H]1[C@@H]3C=C(OC)C(=O)C[C@]23CCN1C, the IC50 [1, 5] was > 100 µM and the inhibition [2] was “Active”.
In the case of COC(=O)[C@H]1C(c2cccc(Cl)c2)=NO[C@@H]1c1cc(OC)c(O)c2c1C[C@@H]1[C@@H]3C=C(OC)C(=O)C[C@]23CCN1C, the IC50 [1, 5] is reported as 71.3 µM and the inhibition [2] is reported as “Active”.
For COC(=O)[C@@H]1C(c2cccc(Cl)c2)=NO[C@H]1c1cc(OC)c(O)c2c1C[C@@H]1[C@@H]3C=C(OC)C(=O)C[C@]23CCN1C, the IC50 [1, 5] was 78.3 µM and the inhibition [2] was “inactive”.
For COC(=O)[C@H]1C(c2ccc(Cl)cc2)=NO[C@@H]1c1cc(OC)c(O)c2c1C[C@@H]1[C@@H]3C=C(OC)C(=O)C[C@]23CCN1C, the IC50 [1, 5] was 66.7 µM and the inhibition [2] was “Active”.
With COC(=O)[C@@H]1C(c2ccccc2)=NO[C@H]1c1cc(OC)c(O)c2c1C[C@@H]1[C@@H]3C=C(OC)C(=O)C[C@]23CCN1C the IC50 [1, 5] was > 100 µM and the inhibition [2] was “inactive”.
In the case of COC(=O)/C(C)=C/c1cc(OC)c(O)c2c1C[C@@H]1[C@@H]3C=C(OC)C(=O)C[C@]23CCN1C, the IC50 [1, 5] is reported as > 100 µM.
In the case of COC(=O)[C@@H]1C(c2ccc(Br)cc2)=NO[C@H]1c1cc(OC)c(O)c2c1C[C@@H]1[C@@H]3C=C(OC)C(=O)C[C@]23CCN1C, the IC50 [1, 5] is reported as 53.1 µM and the inhibition [2] is reported as “inactive”.
In the case of COC1=C[C@@H]2[C@@H]3Cc4ccc(OC)c(O)c4[C@]2(CCN3C)CC1=O [SINOMENINE], the IC50 [1, 5] is reported as > 100 µM and the inhibition [2] is reported as “inactive”.
COC(=O)/C=C/c1cc(OC)c(O)c2c1C[C@@H]1[C@@H]3C=C(OC)C(=O)C[C@]23CCN1C was tested, and the IC50 [1, 5] was > 100 µM.
For COC1=C[C@H]2[C@H]3Cc4c(/C=C/C(=O)OC(C)(C)C)cc(OC)c(O)c4[C@@]2(CCN3C)CC1=O, the IC50 [1, 5] was > 100 µM.
For CCCCCCOC(=O)/C=C/c1cc(OC)c(O)c2c1C[C@@H]1[C@@H]3C=C(OC)C(=O)C[C@]23CCN1C, the IC50 [1, 5] was 38.9 µM, the inhibition [3] was “Active” and the inhibition [2] was “Active”.
COC(=O)[C@@H]1C(c2ccc(OC)cc2)=NO[C@H]1c1cc(OC)c(O)c2c1C[C@@H]1[C@@H]3C=C(OC)C(=O)C[C@]23CCN1C was tested, and the IC50 [1, 5] was 83.9 µM and the inhibition [2] was “inactive”.
In the case of COc1ccc2c(c1)c(CC(=O)O)c(C)n2C(=O)c1ccc(Cl)cc1, the inhibition [4] is reported as “Active”.
In the case of COC(=O)[C@H]1C(c2ccc(OC)cc2)=NO[C@@H]1c1cc(OC)c(O)c2c1C[C@@H]1[C@@H]3C=C(OC)C(=O)C[C@]23CCN1C, the IC50 [1, 5] is reported as > 100 µM and the inhibition [2] is reported as “Active”.
In the case of CCOC(=O)/C=C/c1cc(OC)c(O)c2c1C[C@@H]1[C@@H]3C=C(OC)C(=O)C[C@]23CCN1C, the IC50 [1, 5] is reported as > 100 µM.
In the case of COCCOC(=O)/C=C/c1cc(OC)c(O)c2c1C[C@@H]1[C@@H]3C=C(OC)C(=O)C[C@]23CCN1C, the IC50 [1, 5] is reported as > 100 µM.
COC(=O)[C@@H]1C(c2cccc(C)c2)=NO[C@H]1c1cc(OC)c(O)c2c1C[C@@H]1[C@@H]3C=C(OC)C(=O)C[C@]23CCN1C was tested, and the IC50 [1, 5] was 78.3 µM and the inhibition [2] was “Active”.
With COC(=O)[C@H]1C(c2cccc(C)c2)=NO[C@@H]1c1cc(OC)c(O)c2c1C[C@@H]1[C@@H]3C=C(OC)C(=O)C[C@]23CCN1C the IC50 [1, 5] was > 100 µM and the inhibition [2] was “Active”.
COC1=C[C@H]2[C@H]3Cc4c(/C=C/C(=O)OC5CCCCC5)cc(OC)c(O)c4[C@@]2(CCN3C)CC1=O was tested, and the IC50 ([1]; nih3t3) was “ND(Insoluble)”.
In the case of CCCCOC(=O)/C=C/c1cc(OC)c(O)c2c1C[C@@H]1[C@@H]3C=C(OC)C(=O)C[C@]23CCN1C, the IC50 [1, 5] is reported as 80 µM and the inhibition [2] is reported as “Active”.
In the case of COC(=O)[C@H]1C(c2ccc(C)cc2)=NO[C@@H]1c1cc(OC)c(O)c2c1C[C@@H]1[C@@H]3C=C(OC)C(=O)C[C@]23CCN1C, the IC50 [1, 5] is reported as 80.7 µM and the inhibition [2] is reported as “Active”.
With COC(=O)[C@@H]1C(c2ccc(C)cc2)=NO[C@H]1c1cc(OC)c(O)c2c1C[C@@H]1[C@@H]3C=C(OC)C(=O)C[C@]23CCN1C the IC50 [1, 5] was 78 µM and the inhibition [2] was “Active”.
For COC(=O)[C@@H]1C(c2ccc(Cl)cc2)=NO[C@H]1c1cc(OC)c(O)c2c1C[C@@H]1[C@@H]3C=C(OC)C(=O)C[C@]23CCN1C, the IC50 [1, 5] was 75.1 µM and the inhibition [2] was “inactive”.
For COC1=C[C@H]2[C@H]3Cc4c(/C=C/C(=O)OCC(C)C)cc(OC)c(O)c4[C@@]2(CCN3C)CC1=O, the IC50 [1, 5] was > 100 µM.
